For 28 compounds, Emax and EC50 results are on record in patent US20250026752A1, “POSITIVE ALLOSTERIC MODULATORS OF THE MUSCARINIC ACETYLCHOLINE RECEPTOR M4” (Vanderbilt University, priority 2021, published 2025).

In this assay the target is T1, human mAChR M4 (Homo sapiens, UniProt P08173).
T1 construct: expressed in transfected cells; host or cells: CHO-K1 (ATCC), stably expressing hM4 and Gqi5
T1 sequence (P08173 1-479): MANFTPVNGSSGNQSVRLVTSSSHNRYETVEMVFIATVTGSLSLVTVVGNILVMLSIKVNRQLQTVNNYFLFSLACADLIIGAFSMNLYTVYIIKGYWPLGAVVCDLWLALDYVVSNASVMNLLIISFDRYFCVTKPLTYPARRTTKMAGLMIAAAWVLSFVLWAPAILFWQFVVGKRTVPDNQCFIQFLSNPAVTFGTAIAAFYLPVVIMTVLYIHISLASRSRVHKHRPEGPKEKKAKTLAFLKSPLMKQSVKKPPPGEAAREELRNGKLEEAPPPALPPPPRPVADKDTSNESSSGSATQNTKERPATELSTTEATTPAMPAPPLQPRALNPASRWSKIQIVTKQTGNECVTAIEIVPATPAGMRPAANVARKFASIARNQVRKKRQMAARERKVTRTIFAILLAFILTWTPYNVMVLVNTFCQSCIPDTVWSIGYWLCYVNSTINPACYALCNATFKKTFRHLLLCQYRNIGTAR
Nature of the assay: mAChR M4 cell-based functional assay: calcium flux (Fluo-4, FDSS), positive allosteric modulator activity on the EC20 acetylcholine response, hM4-Gqi5 CHO-K1 cells. Particulars: for Emax at 30 µM: CHO-K1, human M4, % ACh maximum at 30 μM; for EC50: human M4, PAM activity on EC20 acetylcholine response, calcium flux, read-out: Human M4 EC50. The procedure, abridged:
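Potentiation was taken as the concentration-dependent rise in the EC20 acetylcholine calcium response, fitted by a four-parameter logistic with EC20 as baseline. Fluo-4-loaded hM4-Gqi5 CHO-K1 cells received 11-point, threefold-diluted compound before acetylcholine at 144 s; FDSS read at 1 Hz.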

Consider `Cn1nccc1Nc1cnc2c(c1)CN(c1nc(N3CCOC(C)(C)C3)nc3ccc(F)cc13)CC2` [Compound 214, 6-[2-(2,2-dimethylmorpholin-4-yl)-6-fluoro-quinazolin-4-yl]-N-(2-methylpyrazol-3-yl)-7,8-dihydro-5H-1,6-naphthyridin-3-amine], for which the Emax (in general, the maximal effect, on the per cent scale that the assay sets) at 30 µM was 70% and the EC50 (commonly the midpoint of the concentration-response curve) came out at 830 nM.

With `Fc1ccc2ncnc(N3CCc4ncc(Cc5ccccc5F)cc4C3)c2c1` [Compound 164, 6-fluoro-4-[3-[(2-fluorophenyl)methyl]-7,8-dihydro-5H-1,6-naphthyridin-6-yl]quinazoline], the maximum response (Emax) at 30 µM was determined as 75% and the concentration for a half-maximal effect (EC50) was found to be 590 nM.

On to `CC1CN(c2ncnc3ccc(F)cc23)Cc2cc(C(F)(F)F)cnc21` (racemic) [Compound 115, 6-fluoro-4-[8-methyl-3-(trifluoromethyl)-7,8-dihydro-5H-1,6-naphthyridin-6-yl]quinazoline], for which the Emax at 30 µM was 93% and the concentration giving a half-maximal response (EC50) amounted to 60 nM.

Take `Cc1nc(N2CCc3ncc(-c4cnn(C5CC5)c4)cc3C2)c2cc(F)ccc2n1` [Compound 5, 4-[3-(1-cyclopropylpyrazol-4-yl)-7,8-dihydro-5H-1,6-naphthyridin-6-yl]-6-fluoro-2-methyl-quinazoline]: the Emax at 30 µM came to 80% and the EC50 was 340 nM.

Take `COc1ccc2ncnc(N3CCc4ncc(-c5ccccc5C)cc4C3)c2c1` [Compound 296, 6-methoxy-4-(3-(o-tolyl)-7,8-dihydro-1,6-naphthyridin-6(5H)-yl)quinazoline]: the maximum response (Emax) at 30 µM turned out to be 102% and the half-maximal effective concentration (EC50) worked out at 1370 nM.

Regarding `COc1ccc2nc(C)nc(N3CCc4ncc(C(F)(F)F)cc4C3)c2c1` [Compound 168, 6-methoxy-2-methyl-4-[3-(trifluoromethyl)-7,8-dihydro-5H-1,6-naphthyridin-6-yl]quinazoline], the Emax at 30 µM amounted to 71% and the EC50 is 510 nM.

As to `Cc1nc(N2CCc3ncc(-c4cnc(F)cc4C)cc3C2)c2cc(Cl)ccc2n1` [Compound 311, 6-chloro-4-(3-(6-fluoro-4-methylpyridin-3-yl)-7,8-dihydro-1,6-naphthyridin-6(5H)-yl)-2-methylquinazoline], the Emax at 30 µM was found to be 77% and the concentration giving a half-maximal response (EC50) came out at 180 nM.

On to `FC(F)(F)c1ccc(-c2cnc3c(c2)CN(c2ncnc4ccc(Cl)cc24)CC3)cn1` [Compound 44, 6-chloro-4-[3-[6-(trifluoromethyl)-3-pyridyl]-7,8-dihydro-5H-1,6-naphthyridin-6-yl]quinazoline], for which the Emax at 30 µM was 59% and the EC50 was 470 nM.

As for `Cc1nc(N2CCc3ncc(N4CCN(C)C5(COC5)C4)cc3C2)c2cc(Cl)ccc2n1` [Compound 285, 8-(6-(6-chloro-2-methylquinazolin-4-yl)-5,6,7,8-tetrahydro-1,6-naphthyridin-3-yl)-5-methyl-2-oxa-5,8-diazaspiro[3.5]nonane], the maximal effect (Emax) at 30 µM worked out at 98% and the EC50 is 580 nM.

As to `COc1ccc2ncnc(N3CCc4ncc(-c5cn(C)nc5C)cc4C3)c2c1` [Compound 13, 4-[3-(1,3-dimethylpyrazol-4-yl)-7,8-dihydro-5H-1,6-naphthyridin-6-yl]-6-methoxy-quinazoline], the Emax at 30 µM stood at 109% and the half-maximal effective concentration (EC50) was 370 nM.

Consider `C[C@@H]1CN(c2ncnc3cc(F)c(F)cc23)Cc2cc(N3CCOCC3)cnc21` [Compound 258, (R)-4-(6-(6,7-difluoroquinazolin-4-yl)-8-methyl-5,6,7,8-tetrahydro-1,6-naphthyridin-3-yl)morpholine], for which the Emax at 30 µM was 93% and the 50% effective concentration (EC50) was found to be 180 nM.

Turning to `Cc1nc(N2CCc3ncc(Oc4ccccc4F)cc3C2)c2cc(F)ccc2n1` [Compound 133, 6-fluoro-4-[3-(2-fluorophenoxy)-7,8-dihydro-5H-1,6-naphthyridin-6-yl]-2-methyl-quinazoline], the Emax at 30 µM was determined as 87% and the EC50 was 230 nM.

Take `Cc1nc(N2CCc3ncc(-c4ccnn4C4COC4)cc3C2)c2cc(Cl)ccc2n1` [Compound 255, 6-chloro-2-methyl-4-(3-(1-(oxetan-3-yl)-1H-pyrazol-5-yl)-7,8-dihydro-1,6-naphthyridin-6(5H)-yl)quinazoline]: the Emax at 30 µM was 76% and the half-maximal effective concentration (EC50) came to 610 nM.

As to `Cc1ccc2ncnc(N3CCc4ncc(-c5cn(C)nc5C)cc4C3)c2c1` [Compound 14, 4-[3-(1,3-dimethylpyrazol-4-yl)-7,8-dihydro-5H-1,6-naphthyridin-6-yl]-6-methyl-quinazoline], the maximal effect (Emax) at 30 µM came out at 117% and the EC50 was found to be 160 nM.

For `Cc1nc(N2CCc3ncc(C(F)(F)F)cc3C2)c2cccc(F)c2n1` [Compound 126, 8-fluoro-2-methyl-4-[3-(trifluoromethyl)-7,8-dihydro-5H-1,6-naphthyridin-6-yl]quinazoline], the Emax at 30 µM turned out to be 66% and the EC50 was found to be 310 nM.

On to `Fc1ccc(Cc2cnc3c(c2)CN(c2ncnc4ccc(F)cc24)CC3)cc1` [Compound 170, 6-fluoro-4-[3-[(4-fluorophenyl)methyl]-7,8-dihydro-5H-1,6-naphthyridin-6-yl]quinazoline], for which the Emax at 30 µM amounted to 82% and the EC50 amounted to 490 nM.

For the compound `Cc1nc(N2CCc3ncc(-c4cnc(C)s4)cc3C2)c2cc(Cl)ccc2n1` [Compound 48, 5-[6-(6-chloro-2-methyl-quinazolin-4-yl)-7,8-dihydro-5H-1,6-naphthyridin-3-yl]-2-methyl-thiazole], the Emax at 30 µM turned out to be 92% and the half-maximal effective concentration (EC50) came to 270 nM.

On to `Fc1ccc2ncnc(N3CCc4ncc(N5CCOC(c6ccccn6)C5)cc4C3)c2c1` (centres unmarked) [Compound 223, 4-(6-(6-fluoroquinazolin-4-yl)-5,6,7,8-tetrahydro-1,6-naphthyridin-3-yl)-2-(pyridin-2-yl)morpholine], for which the maximal response (Emax) at 30 µM worked out at 65% and the 50% effective concentration (EC50) was found to be 670 nM.

For the compound `Cc1ccc2ncnc(N3CCc4ncc(Nc5cccnc5F)cc4C3)c2c1` [Compound 97, N-(2-fluoro-3-pyridyl)-6-(6-methylquinazolin-4-yl)-7,8-dihydro-5H-1,6-naphthyridin-3-amine], the maximum response (Emax) at 30 µM is 95% and the half-maximal effective concentration (EC50) turned out to be 80 nM.

On to `Fc1ncccc1Nc1cnc2c(c1)CN(c1nc(Cl)nc3ccc(Cl)cc13)CC2` [Compound 88, 6-(2,6-dichloroquinazolin-4-yl)-N-(2-fluoro-3-pyridyl)-7,8-dihydro-5H-1,6-naphthyridin-3-amine], for which the maximal effect (Emax) at 30 µM is 103% and the EC50 amounted to 1070 nM.

As for `CC1CN(c2ncnc3ccc(F)cc23)Cc2cc(Nc3cccnc3)cnc21` (centres unmarked) [Compound 234, 6-(6-fluoroquinazolin-4-yl)-8-methyl-N-(pyridin-3-yl)-5,6,7,8-tetrahydro-1,6-naphthyridin-3-amine], the maximal response (Emax) at 30 µM came out at 86% and the EC50 amounted to 110 nM.

Take `Cc1ccc2c(N3CCc4ncc(C(F)(F)F)cc4C3)nc(C)nc2c1` [Compound 124, 2,7-dimethyl-4-[3-(trifluoromethyl)-7,8-dihydro-5H-1,6-naphthyridin-6-yl]quinazoline]: the Emax at 30 µM is 43% and the EC50 was 950 nM.

`Cc1nc(N2CCc3ncc(Nc4cccnc4F)cc3C2)c2cc(Cl)ccc2n1` [Compound 72, 6-(6-chloro-2-methyl-quinazolin-4-yl)-N-(2-fluoro-3-pyridyl)-7,8-dihydro-5H-1,6-naphthyridin-3-amine]: the maximal effect (Emax) at 30 µM was 84% and the EC50 was 490 nM.

For `Clc1ccc2ncnc(N3CCc4ncc(C5CC5)cc4C3)c2c1` [Compound 231, 6-chloro-4-(3-cyclopropyl-7,8-dihydro-1,6-naphthyridin-6(5H)-yl)quinazoline], the maximal response (Emax) at 30 µM amounted to 92% and the EC50 came out at 50 nM.

`Cc1cc(F)ncc1-c1cnc2c(c1)CN(c1ncnc3ccc(F)cc13)CC2` [Compound 304, 6-fluoro-4-(3-(6-fluoro-4-methylpyridin-3-yl)-7,8-dihydro-1,6-naphthyridin-6(5H)-yl)quinazoline]: the Emax at 30 µM came out at 95% and the EC50 was found to be 80 nM.

On to `Cc1ccc2nc(C)nc(N3CCc4ncc(-c5cn(C)nc5C)cc4C3)c2c1` [Compound 32, 4-[3-(1,3-dimethylpyrazol-4-yl)-7,8-dihydro-5H-1,6-naphthyridin-6-yl]-2,6-dimethyl-quinazoline], for which the maximal response (Emax) at 30 µM was 84% and the EC50 stood at 780 nM.

As for `Fc1ncccc1Nc1cnc2c(c1)CN(c1ncnc3ccc(Cl)cc13)CC2` [Compound 71, 6-(6-chloroquinazolin-4-yl)-N-(2-fluoro-3-pyridyl)-7,8-dihydro-5H-1,6-naphthyridin-3-amine], the maximal response (Emax) at 30 µM is 82% and the half-maximal effective concentration (EC50) worked out at 140 nM.

Take `Fc1cc2ncnc(N3CCc4ncc(C5CC5)cc4C3)c2cc1F` [Compound 162, 4-(3-cyclopropyl-7,8-dihydro-5H-1,6-naphthyridin-6-yl)-6,7-difluoro-quinazoline]: the Emax at 30 µM is 88% and the EC50 was determined as 60 nM.
